In ChEMBL document CHEMBL1128356, “Antineoplastic agents. 291. Isolation and synthesis of combretastatins A-4, A-5, and A-6(1a)” (1995):

Legend:
[1] = tested on: NCI 60 human tumor cell line panel (Homo sapiens); assay: In vitro inhibitory activity against NCI 60 human tumor cell line panel
[2] = tested on: Panel (Carcinoma cell lines); assay: In vitro antitumor activity against human tumor cancer cell lines; format: functional

SMILES | GI50 [1] | GI50 [2]
COc1ccc(/C=C\c2cc(O)c(OC)c(OC)c2)cc1OC | 1650 nM | 
COc1ccc(/C=C/c2cc(O)c(OC)c(OC)c2)cc1OC | > 100000 nM | 
COc1ccc(/C=C\c2cc(OC)c(OC)c(OC)c2)cc1O [COMBRETASTATIN A4] | 3.2 nM | 
COc1ccc(/C=C\c2cc(OC)c(OC)c(OC)c2)c(O)c1O [COMBRETASTATIN A-1] |  | 16.2 nM
COc1ccc(/C=C\c2cc(OC)c3c(c2)OCO3)cc1O [Combretastatin A-2] |  | 31.6 nM
